Values after ≈ are worked out from the molar mass of the structure shown.
Key:
[1] = Inhibition of Escherichia coli HS294 ACCase
Escherichia coli = experiment: Antimicrobial activity against Escherichia coli HS294; type: functional

Structure (SMILES) | IC50 ([1]; read-out: IC50) [µM] | IC50 [1] | MIC (Escherichia coli) [mg/L]
NC(=O)c1cc(N)c2c(c1)nc(NCc1ccccc1Cl)n2C[C@H]1CCCCC[C@H]1O | 5 | – | –
COc1cc(Cc2cnc(N)nc2N)cc(OC)c1OC [TRIMETHOPRIM] | – | Not Active | –
NC(=O)c1ccc2c(c1)nc(NCc1ccccc1Br)n2CC1CCCCC1 | 143 | – | –
NC(=O)c1ccc2c(c1)nc(NCc1ccccc1Cl)n2CC[C@H](O)CO | 0.4 | – | –
C[C@H](Nc1nc2cc(C(N)=O)ccc2n1CC1CCCCC1)c1ccccc1 | 41 | – | –
NC(=O)c1ccc2c(c1)nc(NCc1ccccc1Cl)n2[C@H]1CCc2ccccc21 | 14.7 | – | –
NC(=O)c1cc(Br)c2c(c1)nc(NCc1ccccc1Cl)n2C[C@H]1CCCCC[C@H]1O | 0.13 | – | 0.4 (≈ 0.791 µM)
NC(=O)c1ccc2c(n1)nc(NCc1ccccc1Cl)n2Cc1ccc2c(c1)OCCO2 | 2.75 | – | –
NC(=O)c1cc(S(=O)(=O)NCc2ccc(Cl)cc2)c2c(c1)nc(NCc1ccccc1Cl)n2C[C@H]1CCCCC[C@H]1O | 2.1 | – | –
CC1CCCCC1n1c(NCc2ccccc2Cl)nc2cc(C(N)=O)ccc21 (centres undefined) | 2.1 | – | –
NC(=O)c1ccc2c(n1)nc(NCc1ccccc1Cl)n2CC1COc2ccccc2O1 (centres undefined) | 0.3 | – | –
NC(=O)c1cc(Cl)c2c(c1)nc(NCc1ccccc1Cl)n2CC1CCCCC1 | 1.6 | – | –
CC(C)CCNS(=O)(=O)c1cc(C(N)=O)cc2nc(NCc3ccccc3Cl)n(C[C@H]3CCCCC[C@H]3O)c12 | 0.8 | – | –
NC(=O)c1ccc2c(c1)nc(NCc1ccccc1Cl)n2C[C@H]1CCCCC[C@H]1O | 0.5 | – | –
NC(=O)c1ccc2c(c1)nc(NCc1cccc(Cl)c1)n2CC1CCCCC1 | 40 | – | –
NC(=O)c1ccc2c(n1)nc(NCc1ccccc1Cl)n2CC(O)COc1ccccc1 (centres undefined) | 3.01 | – | –
NC(=O)c1ccc2c(c1)nc(NCc1ccccc1)n2CC1CCCCC1 | 15.8 | – | –
NC(=O)c1ccc2c(n1)nc(NCc1ccccc1Cl)n2C1CCCCC1 | 0.13 | – | –
COc1ccccc1Cn1c(NCc2ccccc2Cl)nc2nc(C(N)=O)ccc21 | 2.84 | – | –
Cn1c(NCc2ccccc2Cl)nc2cc(C(N)=O)cc([N+](=O)[O-])c21 | 3.5 | – | –
CNS(=O)(=O)c1cc(C(N)=O)cc2nc(NCc3ccccc3Cl)n(C[C@H]3CCCCC[C@H]3O)c12 | 0.38 | – | –
Cn1c(NCc2ccccc2Cl)nc2cc(C(N)=O)cc(N)c21 | 50 | – | –
NC(=O)c1ccc2c(c1)nc(NCc1ccccc1Cl)n2CC1CCCCC1 | 5 | – | –
CC(C)(CO)Cn1c(NCc2ccccc2Cl)nc2cc(C(N)=O)ccc21 | 0.7 | – | –
Cc1ccccc1CNc1nc2cc(C(N)=O)ccc2n1CC1CCCCC1 | 28 | – | –
NC(=O)c1ccc2c(c1)nc(NCc1ccccc1Cl)n2[C@H]1CCCc2ccccc21 | 1.3 | – | –
NC(=O)c1ccc2c(c1)nc(NCc1ccccc1Cl)n2[C@@H]1CCc2ccccc21 | 0.7 | – | –

Structure (SMILES) | IC50 ([1]; read-out: IC50) [µM] | IC50 [1] | MIC (Escherichia coli) [mg/L]
CSc1cc(C(N)=O)cc2nc(NCc3ccccc3Cl)n(C[C@H]3CCCCC[C@H]3O)c12 | 0.17 | – | –
NC(=O)c1ccc2c(c1)nc(NCc1cccc3ccccc13)n2CC1CCCCC1 | 171 | – | –
C[C@H](O)Cn1c(NCc2ccccc2Cl)nc2nc(C(N)=O)ccc21 | 0.27 | – | –
NC(=O)c1ccc2c(c1)nc(NCc1ccccc1Cl)n2CCc1c[nH]c2ccccc12 | 9.5 | – | –
NC(=O)c1ccc2c(c1)nc(NCc1ccccc1F)n2CC1CCCCC1 | 16.9 | – | –
NC(=O)c1ccc2c(n1)nc(NCc1ccccc1Cl)n2[C@@H]1CCc2ccccc21 | 0.02 | – | 0.8 (≈ 1.91 µM)
NC(=O)c1ccc2c(c1)nc(NCc1ccccc1C(F)(F)F)n2CC1CCCCC1 | 144 | – | –
NC(=O)c1ccc2c(n1)nc(NCc1ccccc1Cl)n2Cc1ccccc1 | 0.17 | – | –
NC(=O)c1ccc2c(c1)nc(NCc1ccccc1Cl)n2CCCO | 2 | – | –
C[S+]([O-])c1cc(C(N)=O)cc2nc(NCc3ccccc3Cl)n(C[C@H]3CCCCC[C@H]3O)c12 (some centres undefined) | 0.26 | – | 12.5 (≈ 25.6 µM)
CC(C)(C)OCCCn1c(NCc2ccccc2Cl)nc2nc(C(N)=O)ccc21 | 0.35 | – | –
CNC(=O)c1ccc2c(c1)nc(NCc1ccccc1Cl)n2CC1CCCCC1 | > 20 | – | –
NC(=O)c1cc([N+](=O)[O-])c2c(c1)nc(NCc1ccccc1Cl)n2C[C@H]1CCCCC[C@H]1O | 0.01 | – | 0.2 (≈ 0.424 µM)
CS(=O)(=O)c1cc(C(N)=O)cc2nc(NCc3ccccc3Cl)n(C[C@H]3CCCCC[C@H]3O)c12 | 0.06 | – | 1.6 (≈ 3.17 µM)
NC(=O)c1ccc2c(n1)nc(NCc1ccccc1Cl)n2CCCO | 0.19 | – | –
NC(=O)c1ccc2c(c1)nc(NCc1ccc(Cl)cc1)n2CC1CCCCC1 | 63 | – | –
C[C@@H](c1ccccc1)n1c(NCc2ccccc2Cl)nc2nc(C(N)=O)ccc21 | 2.06 | – | –
NC(=O)c1ccc2c(c1)nc(NCc1c(Cl)cccc1Cl)n2CC1CCCCC1 | 241 | – | –
NC(=O)c1ccc2c(c1)nc(NCc1ccccc1Cl)n2CCc1ccccc1 | 8.9 | – | –
CC(C)S(=O)(=O)c1cc(C(N)=O)cc2nc(NCc3ccccc3Cl)n(C[C@H]3CCCCC[C@H]3O)c12 | 0.1 | – | –
NC(=O)c1ccc2c(n1)nc(NCc1ccccc1Cl)n2Cc1cccc(OC(F)(F)F)c1 | 40 | – | –
NC(=O)c1cc(S(N)(=O)=O)c2c(c1)nc(NCc1ccccc1Cl)n2C[C@H]1CCCCC[C@H]1O | 0.7 | – | –
NC(=O)c1cc([N+](=O)[O-])c2c(c1)nc(NCc1ccccc1Cl)n2[C@H]1CCc2ccccc21 | 0.09 | – | –
COc1ccccc1CNc1nc2cc(C(N)=O)ccc2n1CC1CCCCC1 | 139 | – | –
CC(C)(CO)Cn1c(NCc2ccccc2Cl)nc2nc(C(N)=O)ccc21 | 0.02 | – | 1.6 (≈ 4.13 µM)
NC(=O)c1ccc2c(n1)nc(NCc1ccccc1Cl)n2CC1CCCCC1 | 0.16 | – | –
